Holding throughout (assay): HTS ATP-utilizing enzyme assay, off-chip mobility-shift (Caliper HTS 250)
Holding throughout (assay type): biochemical
Holding throughout (conditions): test compound 10 μM, kinase listed = active (greater than six-sigma from the mean activity of inactive compounds)

One experiment concerns the target MAPKAPK2 (Homo sapiens, UniProt P49137). The essentials:
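Single-point screen of test compound at 10 μM against MAPKAPK2 with peptide substrate in HEPES pH 7.5 buffer (Triton X-100, BSA), 2.5 h at 20-22 °C. Substrate-to-phosphopeptide ratio was read by off-chip microfluidic mobility shift; EDTA and DMSO wells defined 100% and 0% controls, hits by six-sigma limits.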

A further experiment addresses T1, DYRK2 (Homo sapiens, UniProt Q92630).
T1 sequence (Q92630 1-601): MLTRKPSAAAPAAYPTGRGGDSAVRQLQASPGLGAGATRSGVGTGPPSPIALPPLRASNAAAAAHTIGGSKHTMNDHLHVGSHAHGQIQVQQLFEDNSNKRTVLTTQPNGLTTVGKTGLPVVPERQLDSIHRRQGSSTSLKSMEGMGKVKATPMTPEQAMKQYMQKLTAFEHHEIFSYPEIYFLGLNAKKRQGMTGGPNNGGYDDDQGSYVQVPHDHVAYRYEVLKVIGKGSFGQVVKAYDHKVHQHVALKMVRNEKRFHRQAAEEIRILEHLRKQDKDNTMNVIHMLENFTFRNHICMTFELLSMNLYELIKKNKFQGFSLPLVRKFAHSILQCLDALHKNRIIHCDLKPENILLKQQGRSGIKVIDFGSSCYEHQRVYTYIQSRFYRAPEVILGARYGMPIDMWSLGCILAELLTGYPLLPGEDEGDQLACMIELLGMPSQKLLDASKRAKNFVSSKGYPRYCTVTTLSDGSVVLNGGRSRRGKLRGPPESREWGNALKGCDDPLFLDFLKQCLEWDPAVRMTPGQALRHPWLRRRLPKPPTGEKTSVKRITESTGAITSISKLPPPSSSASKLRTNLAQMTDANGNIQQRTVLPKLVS
The source says:
(§1) The following procedures describe the reagent and plate preparation for a HTS of an ATP-utilizing enzyme, such as a protein kinase, run in an off-chip mobility-shift assay format. The following provides an HTS protocol for running a protein kinase HTS screen on a Caliper HTS 250 microfluidics system. The following parameters are dependent on the protein kinase used and can be determined by one skilled in the art as part of a typical assay development process. For example, the peptide substrate used can be identified from the current literature, by screening a peptide library of potential protein kinase substrates, or by other applicable means accepted in the field.
(§2) The following table provides typical screen assay parameters appropriate for a Caliper HTS 250 microfluidics system.
(§3) The reagents and buffers listed in the following table are generally applicable for developing and running an HTS screen on a human protein kinase using the Caliper HTS 250 system.
(§4) The following reagents were prepared using the previously described buffers.
(§5) A 2× Master Buffer solution was prepared by combining 200 mL of 1 M HEPES, pH 7.5, 2 mL of 10% Triton X-100, 20 mL of 10% BSA, and 778 mL of H2O.
(§6) A 2.5× Substrate Buffer solution was prepared by combining 177.408 mL of 2× Master Buffer, 0.887 mL of 1 mM peptide-X, and 176.521 mL of H2O.
(§7) A 1.55× Termination Buffer solution was prepared by combining 762.05 mL of 2× Master Buffer, 95.1 mL of 0.5 M EDTA, and 666.94 mL of H2O.
(§8) A TCB Buffer solution was prepared by combining 125 mL of 2× Master Buffer, 10 mL of 0.5 M EDTA, 6.25 mL of 4% coating reagent, 1.01 mL of 100% DMSO, and 107.74 mL H2O.
(§9) A Dye Trough solution was prepared by combining 0.5 μL of peptide-X, and 2,999.5 μL of IX Master Buffer.
(§10) A 1.06× Assay Buffer solution was prepared by combining 205.15 mL of 2× Master Buffer, and 181.92 mL of H2O.
(§11) Assays to determine the kinase inhibitory activity of compounds of the present disclosure were performed using a Caliper HTS 250 microfluidics device, Greiner U-bottom assay plates, a Multidrop for transfer of reagents, and Biomek FX (AMNCBM03) software. Initially, 2.4 μL of a 1 mM solution of a test compound in 100% DMSO was added to a well of the Greiner U-bottom plate. A single Greiner U-bottom plate having 24×16 wells could include multiple test compounds. Next, […] of 1.06× Assay Buffer was added to each well of the assay plate. Using the Biomek FX, 10 μL of 0.5 M EDTA was added by the span-8 to wells, indicated as 100% Control and 2.4 μL of 100% DMSO was added by the span-8 to wells, indicated as 0% Control. Using the Multidrop, 10 μL of 2.5× Enzyme Buffer, followed by 10 μL of 2.5× Substrate Buffer was added to each well of the assay plate. The total reaction volume in each well was 25 μL, and the concentration of the test compound was 10 μM. The assay plate was incubated for 2.5 hrs at 20° C. to 22° C. After the incubation period, using the Multidrop, 45 μL of 1.55× Termination Buffer was added to each well of the assay plate to stop the reaction. The inhibition of the ATP-utilizing enzyme, such as a particular protein kinase, was determined by measuring the ratio of the peptide substrate to phosphorylated product for each well of the assay plate using the Caliper HTS 250 system.
(§12) The use of six-sigma statistical limits represents a conservative method for declaring potential hits among targets. The six-sigma activity, as well as the mean population activity, can be different for each target enzyme. This method has an expected false positive rate, from an in-control measurement process, of one in one million.

A further experiment concerns the target KIT (Homo sapiens, UniProt P10721).
From the text: as §1, §2, §3, §4, §5, §6, §7, §8, §9, §10, §11, §12

A further experiment concerns the target T2, NEK2 (Homo sapiens, UniProt P51955).
T2 sequence (P51955 1-445): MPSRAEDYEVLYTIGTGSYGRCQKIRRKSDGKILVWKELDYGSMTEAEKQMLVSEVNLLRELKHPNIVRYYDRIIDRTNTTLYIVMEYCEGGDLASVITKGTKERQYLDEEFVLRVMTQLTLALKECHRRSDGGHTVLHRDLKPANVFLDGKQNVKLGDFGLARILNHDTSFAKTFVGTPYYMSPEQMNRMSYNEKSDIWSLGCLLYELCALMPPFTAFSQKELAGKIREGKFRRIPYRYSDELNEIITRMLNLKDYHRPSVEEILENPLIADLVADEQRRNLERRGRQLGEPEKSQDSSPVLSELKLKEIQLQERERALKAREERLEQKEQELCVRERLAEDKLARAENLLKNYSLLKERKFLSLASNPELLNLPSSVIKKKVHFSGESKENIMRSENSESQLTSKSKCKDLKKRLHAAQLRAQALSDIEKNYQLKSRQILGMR
From the text: as §1, §2, §3, §4, §5, §6, §7, §8, §9, §10, §11, §12

The target in the next experiment is T3, PRAK (Homo sapiens, UniProt Q8IW41).
T3 sequence (Q8IW41 1-473): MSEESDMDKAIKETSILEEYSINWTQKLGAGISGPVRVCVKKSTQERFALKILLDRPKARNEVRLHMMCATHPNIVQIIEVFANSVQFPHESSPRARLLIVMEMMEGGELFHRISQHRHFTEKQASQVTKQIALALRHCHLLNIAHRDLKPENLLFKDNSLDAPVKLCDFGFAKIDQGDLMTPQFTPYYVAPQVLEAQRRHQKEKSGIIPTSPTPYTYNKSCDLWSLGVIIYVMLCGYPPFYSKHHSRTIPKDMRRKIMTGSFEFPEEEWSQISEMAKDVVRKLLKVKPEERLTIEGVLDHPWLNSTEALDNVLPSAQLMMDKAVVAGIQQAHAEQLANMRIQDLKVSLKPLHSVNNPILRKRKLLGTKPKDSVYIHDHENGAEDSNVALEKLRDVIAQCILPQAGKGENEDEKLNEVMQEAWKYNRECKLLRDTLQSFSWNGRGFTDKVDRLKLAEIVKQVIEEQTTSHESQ
From the text: as §1, §2, §3, §4, §5, §6, §7, §8, §9, §10, §11, §12

A further experiment concerns the target C-TAK1 (Homo sapiens, UniProt P27448).
From the text: as §1, §2, §3, §4, §5, §6, §7, §8, §9, §10, §11, §12

MAPKAPK2, sequence (P49137 whole entry): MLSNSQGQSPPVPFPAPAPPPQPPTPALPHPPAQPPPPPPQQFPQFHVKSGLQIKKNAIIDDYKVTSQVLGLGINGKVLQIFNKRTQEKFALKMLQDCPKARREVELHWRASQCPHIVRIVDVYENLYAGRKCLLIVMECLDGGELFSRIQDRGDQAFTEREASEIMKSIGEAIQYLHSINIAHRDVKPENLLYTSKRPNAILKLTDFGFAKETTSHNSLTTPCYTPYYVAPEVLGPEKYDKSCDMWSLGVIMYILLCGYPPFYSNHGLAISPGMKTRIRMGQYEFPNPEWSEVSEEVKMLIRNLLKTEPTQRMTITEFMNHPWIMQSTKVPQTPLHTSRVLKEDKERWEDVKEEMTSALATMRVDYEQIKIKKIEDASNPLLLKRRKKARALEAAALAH
C-TAK1, sequence (P27448 whole entry): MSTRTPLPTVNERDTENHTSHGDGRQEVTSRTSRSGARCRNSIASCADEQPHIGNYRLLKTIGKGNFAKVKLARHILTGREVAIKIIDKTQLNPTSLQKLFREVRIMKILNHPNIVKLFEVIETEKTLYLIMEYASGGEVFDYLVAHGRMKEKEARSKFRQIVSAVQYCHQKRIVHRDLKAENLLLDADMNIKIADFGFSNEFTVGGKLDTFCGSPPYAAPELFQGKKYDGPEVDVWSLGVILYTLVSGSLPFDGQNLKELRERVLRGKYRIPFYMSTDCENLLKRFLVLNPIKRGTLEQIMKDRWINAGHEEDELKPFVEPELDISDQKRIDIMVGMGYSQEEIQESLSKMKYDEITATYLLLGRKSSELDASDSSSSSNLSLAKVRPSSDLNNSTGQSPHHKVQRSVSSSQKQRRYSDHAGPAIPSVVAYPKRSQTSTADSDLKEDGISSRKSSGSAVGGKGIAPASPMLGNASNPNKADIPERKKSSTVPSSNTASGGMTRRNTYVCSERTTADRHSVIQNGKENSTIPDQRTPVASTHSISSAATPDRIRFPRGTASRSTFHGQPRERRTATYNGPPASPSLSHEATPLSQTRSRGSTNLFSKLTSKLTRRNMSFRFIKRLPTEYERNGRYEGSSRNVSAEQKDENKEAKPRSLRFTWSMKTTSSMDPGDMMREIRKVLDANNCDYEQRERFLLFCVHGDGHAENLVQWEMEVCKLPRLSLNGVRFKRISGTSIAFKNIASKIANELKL
KIT, sequence (P10721 26-976): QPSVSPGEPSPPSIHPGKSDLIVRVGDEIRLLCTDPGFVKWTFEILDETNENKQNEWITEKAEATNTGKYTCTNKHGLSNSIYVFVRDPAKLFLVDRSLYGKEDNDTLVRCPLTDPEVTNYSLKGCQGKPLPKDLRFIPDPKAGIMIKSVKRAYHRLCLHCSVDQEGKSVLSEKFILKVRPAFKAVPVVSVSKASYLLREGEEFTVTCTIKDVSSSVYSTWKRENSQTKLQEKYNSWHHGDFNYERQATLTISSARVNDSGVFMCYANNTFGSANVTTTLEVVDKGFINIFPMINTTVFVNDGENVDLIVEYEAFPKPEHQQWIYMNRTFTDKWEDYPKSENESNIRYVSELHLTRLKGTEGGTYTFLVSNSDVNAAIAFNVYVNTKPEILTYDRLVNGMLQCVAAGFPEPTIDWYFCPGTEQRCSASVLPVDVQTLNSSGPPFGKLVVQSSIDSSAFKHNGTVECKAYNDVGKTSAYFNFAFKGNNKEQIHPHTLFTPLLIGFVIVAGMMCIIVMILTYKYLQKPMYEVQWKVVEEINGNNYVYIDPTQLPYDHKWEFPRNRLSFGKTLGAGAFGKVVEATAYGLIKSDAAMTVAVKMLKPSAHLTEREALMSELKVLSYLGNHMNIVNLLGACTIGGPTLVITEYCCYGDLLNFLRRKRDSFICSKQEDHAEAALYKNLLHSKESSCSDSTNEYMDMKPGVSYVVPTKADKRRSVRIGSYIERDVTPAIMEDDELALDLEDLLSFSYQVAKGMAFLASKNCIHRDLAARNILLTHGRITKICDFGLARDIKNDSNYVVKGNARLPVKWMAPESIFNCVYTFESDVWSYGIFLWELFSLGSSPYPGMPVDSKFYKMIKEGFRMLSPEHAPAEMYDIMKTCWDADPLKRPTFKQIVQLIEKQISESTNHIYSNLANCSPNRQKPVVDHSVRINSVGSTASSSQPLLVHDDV

Regarding `COc1ccc(-c2ccc3nccc(Nc4ccc(N5CCN(CCCO)CC5)cc4)c3c2)cc1` [3-(4-(4-(6-(4-methoxyphenyl)quinolin-4-ylamino)phenyl)piperazin-1-yl)propan-1-ol], the Activity entry at MAPKAPK2 is “MAPKAPK2”; on DYRK2, “DYRK2”.

For `CN(C)C1CCN(c2ccc(Nc3ccnc4ccc(-c5ccc(C#N)cc5)cc34)cc2)CC1` [4-(4-(4-(4-(dimethylamino)piperidin-1-yl)phenylamino)quinolin-6-yl)benzonitrile], the Activity entry on KIT was “KIT”.

As to `N#Cc1ccc(-c2ccc3nccc(Nc4ccc(C5CCNCC5)cc4)c3c2)cc1` [4-(4-(4-(piperidin-4-yl)phenylamino)quinolin-6-yl)benzonitrile], at KIT, the Activity entry was “KIT”.

Regarding `COc1ccc(-c2ccc3nccc(Nc4ccc(N5CCN(C)CC5)cc4)c3c2)cc1OC` [6-(3,4-dimethoxyphenyl)-N-(4-(4-methylpiperazin-1-yl)phenyl)quinolin-4-amine], the Activity result at MAPKAPK2 is “MAPKAPK2”; at DYRK2, “DYRK2”; on NEK2, “NEK2”; on PRAK, “PRAK”.

For `COc1cccc(-c2ccc3nccc(Nc4ccc(N5CCN(C)CC5)cc4)c3c2)c1` [6-(3-methoxyphenyl)-N-(4-(4-methylpiperazin-1-yl)phenyl)quinolin-4-amine], the values for the Activity result on DYRK2, at NEK2 and on PRAK were “DYRK2”, “NEK2” and “PRAK”, respectively.

Consider `CCSc1ccc(-c2ccc3nccc(Nc4ccc(N5CCN(C)CC5)cc4)c3c2)cc1` [6-(4-(ethylthio)phenyl)-N-(4-(4-methylpiperazin-1-yl)phenyl)quinolin-4-amine], for which the Activity entry is “MAPKAPK2” on MAPKAPK2, “C-TAK1” on C-TAK1, “NEK2” on NEK2 and “PRAK” on PRAK.

With `CN1CCN(c2ccc(Nc3ccnc4ccc(-c5ccc(C6CCCCC6)cc5)cc34)cc2)CC1` [6-(4-cyclohexylphenyl)-N-(4-(4-methylpiperazin-1-yl)phenyl)quinolin-4-amine], the Activity result is on record as “MAPKAPK2” on MAPKAPK2 and “C-TAK1” at C-TAK1.

Regarding `Cc1cc(-c2ccc3nccc(Nc4ccc(N5CCN(C)CC5)cc4)c3c2)ccc1F` [6-(4-fluoro-3-methylphenyl)-N-(4-(4-methylpiperazin-1-yl)phenyl)quinolin-4-amine], the Activity result is “MAPKAPK2” at MAPKAPK2, “C-TAK1” at C-TAK1, “NEK2” at NEK2 and “PRAK” on PRAK.

On to `COc1ccc(-c2ccc3nccc(Nc4ccc(N5CCN(C)CC5)cc4)c3c2)cc1` [6-(4-methoxyphenyl)-N-(4-(4-methylpiperazin-1-yl)phenyl)quinolin-4-amine], for which the Activity entry at MAPKAPK2 is listed as “MAPKAPK2”; at DYRK2 it was “DYRK2”; on NEK2, “NEK2”; at PRAK, “PRAK”.

`CN1CCN(c2ccc(Nc3ccnc4ccc(-c5cccc(-c6ccccc6)c5)cc34)cc2)CC1` [6-(biphenyl-3-yl)-N-(4-(4-methylpiperazin-1-yl)phenyl)quinolin-4-amine]: the Activity result at MAPKAPK2 is on record as “MAPKAPK2”; on C-TAK1 it was “C-TAK1”; on PRAK, “PRAK”.

As for `COc1ccc(-c2ccc3nccc(Nc4ccc(N5CCN(CCN(C)C)CC5)cc4)c3c2)cc1` [N-(4-(4-(2-(dimethylamino)ethyl)piperazin-1-yl)phenyl)-6-(4-methoxyphenyl)quinolin-4-amine], the Activity entry is on record as “MAPKAPK2” on MAPKAPK2, “C-TAK1” on C-TAK1 and “DYRK2” at DYRK2.

In the case of `CCCCCc1ccc(-c2ccc3nccc(Nc4ccc(N5CCN(C)CC5)cc4)c3c2)cc1` [N-(4-(4-methylpiperazin-1-yl)phenyl)-6-(4-pentylphenyl)quinolin-4-amine], the Activity entry on C-TAK1 is reported as “C-TAK1”; on PRAK, “PRAK”.

In the case of `CN1CCN(c2ccc(Nc3ccnc4ccc(-c5ccc(Oc6ccccc6)cc5)cc34)cc2)CC1` [N-(4-(4-methylpiperazin-1-yl)phenyl)-6-(4-phenoxyphenyl)quinolin-4-amine], the Activity result at MAPKAPK2 is listed as “MAPKAPK2”; on C-TAK1, “C-TAK1”; on PRAK, “PRAK”.

In the case of `Cc1cccc(-c2ccc3nccc(Nc4ccc(N5CCN(C)CC5)cc4)c3c2)c1` [N-(4-(4-methylpiperazin-1-yl)phenyl)-6-m-tolylquinolin-4-amine], the Activity result at MAPKAPK2 was “MAPKAPK2”; on NEK2 it was “NEK2”; on PRAK, “PRAK”.

Consider `Cc1ccc(-c2ccc3nccc(Nc4ccc(N5CCN(C)CC5)cc4)c3c2)cc1` [N-(4-(4-methylpiperazin-1-yl)phenyl)-6-p-tolylquinolin-4-amine], for which the Activity entry is reported as “MAPKAPK2” on MAPKAPK2, “NEK2” on NEK2 and “PRAK” on PRAK.

The record behind these values is patent US7452887B2, “Quinoline- and isoquinoline-based compounds exhibiting ATP-utilizing enzyme inhibitory activity, and compositions, and uses thereof” (Amphora Discovery Corporation, priority 2004, dated 2008).
